In the supplement of paper PMC11952222, “Development and comparison of single FLT3-inhibitors to dual FLT3/TAF1-inhibitors as an anti-leukemic approach” (PLOS One, 2025):
± gives the standard deviation of the averaged measurements.

The compounds below were run on DU4475 (assay: cell viability (CellTiter-Glo luminescence) relative to DMSO (fraction of DMSO control); higher = higher signal (more live cells for CellTiter-Glo)). Settings: 0.3 µM; 72 h.
Experimental: (§1)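 MOLM13, DU4475, HDQP1 and IGROV1 cells were treated with compounds in 384-well format for 72 h (KASUMI-1 in 96-well plates, RPMI + 10% FCS, 72 h). Viability was read with CellTiter-Glo and cell death with CellTox Green, both normalised to DMSO vehicle. Doses ranged 0.001-30 µM.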

For `CC(C)(C)c1cc(NC(=O)Nc2ccc(-c3cn4c(n3)sc3cc(OCCN5CCOCC5)ccc34)cc2)no1` [quizartinib], which cell viability is on record?
Its cell viability is 0.336 ± 0.06.

Same assay, conditions: 1 µM; 72 h

For `Cc1cc(-c2cc(NC(=O)c3ccc(C(C)(C)C)cc3)[nH]n2)ccn1` [3i-1246], which cell viability is on record?
Its cell viability is 0.966 ± 0.045.

How did the cell viability turn out when `CC(C)(C)c1ccc(C(=O)Nc2cc(-c3ccccc3)n[nH]2)cc1` [3i-1247] was run?
The cell viability was 0.873 ± 0.027.

`Cn1cc(-c2cc(NC(=O)c3ccc(C(C)(C)C)cc3)n[nH]2)ccc1=O` [3i-1248] was tested. Which cell viability did it give?
The cell viability was 0.984 ± 0.043.

`C=CCCn1cc(-c2cc(C(=O)N3CCOCC3)cc3c2ncn3C)c2cc[nH]c2c1=O` [GNE-371] was tested. Which cell viability did it give?
Its cell viability is 1.01 ± 0.029.

How did the cell viability turn out when `CC(C)(C)c1cc(NC(=O)Nc2ccc(-c3cn4c(n3)sc3cc(OCCN5CCOCC5)ccc34)cc2)no1` [quizartinib] was run?
The cell viability was 0.196 ± 0.052.

Same assay, conditions: 3 µM; 72 h

With `Cc1cc(-c2cc(NC(=O)c3ccc(C(C)(C)C)cc3)[nH]n2)ccn1` [3i-1246] as the compound, how does the cell viability read?
The cell viability was 0.92 ± 0.029.

How did the cell viability turn out when `CC(C)(C)c1ccc(C(=O)Nc2cc(-c3ccccc3)n[nH]2)cc1` [3i-1247] was run?
The cell viability was 0.446 ± 0.053.

`Cn1cc(-c2cc(NC(=O)c3ccc(C(C)(C)C)cc3)n[nH]2)ccc1=O` [3i-1248] was tested. Which cell viability did it give?
The cell viability was 0.893 ± 0.054.

`C=CCCn1cc(-c2cc(C(=O)N3CCOCC3)cc3c2ncn3C)c2cc[nH]c2c1=O` [GNE-371] was tested. Which cell viability did it give?
Its cell viability is 1.02 ± 0.027.

`CC(C)(C)c1cc(NC(=O)Nc2ccc(-c3cn4c(n3)sc3cc(OCCN5CCOCC5)ccc34)cc2)no1` [quizartinib] was tested. Which cell viability did it give?
The cell viability was 0.0647 ± 0.034.

Same assay, conditions: 10 µM; 72 h

`Cc1cc(-c2cc(NC(=O)c3ccc(C(C)(C)C)cc3)[nH]n2)ccn1` [3i-1246] was tested. Which cell viability did it give?
The cell viability was 0.435 ± 0.12.

Which cell viability does the source give for `CC(C)(C)c1ccc(C(=O)Nc2cc(-c3ccccc3)n[nH]2)cc1` [3i-1247] here?
Its cell viability is 0.028 ± 0.0065.

Which cell viability does the source give for `Cn1cc(-c2cc(NC(=O)c3ccc(C(C)(C)C)cc3)n[nH]2)ccc1=O` [3i-1248] here?
The cell viability was 0.572 ± 0.078.

How did the cell viability turn out when `C=CCCn1cc(-c2cc(C(=O)N3CCOCC3)cc3c2ncn3C)c2cc[nH]c2c1=O` [GNE-371] was run?
Its cell viability is 1.03 ± 0.036.

`CC(C)(C)c1cc(NC(=O)Nc2ccc(-c3cn4c(n3)sc3cc(OCCN5CCOCC5)ccc34)cc2)no1` [quizartinib] was tested. Which cell viability did it give?
Its cell viability is 0.317 ± 0.075.

Same assay, conditions: 30 µM; 72 h

`Cc1cc(-c2cc(NC(=O)c3ccc(C(C)(C)C)cc3)[nH]n2)ccn1` [3i-1246] was tested. Which cell viability did it give?
Its cell viability is 0.00106 ± 0.0011.

How did the cell viability turn out when `CC(C)(C)c1ccc(C(=O)Nc2cc(-c3ccccc3)n[nH]2)cc1` [3i-1247] was run?
The cell viability was 0.00743 ± 0.006.

With `Cn1cc(-c2cc(NC(=O)c3ccc(C(C)(C)C)cc3)n[nH]2)ccc1=O` [3i-1248] as the compound, how does the cell viability read?
Its cell viability is 0.0157 ± 0.016.

How did the cell viability turn out when `C=CCCn1cc(-c2cc(C(=O)N3CCOCC3)cc3c2ncn3C)c2cc[nH]c2c1=O` [GNE-371] was run?
The cell viability was 1.05 ± 0.051.

How did the cell viability turn out when `CC(C)(C)c1cc(NC(=O)Nc2ccc(-c3cn4c(n3)sc3cc(OCCN5CCOCC5)ccc34)cc2)no1` [quizartinib] was run?
Its cell viability is 0.0882 ± 0.042.

What follows are compounds tested on KASUMI-1 in the same assay as above. Settings: 0.000948683 µM; 72 h.
Experimental: as §1

With `Cc1cc(-c2cc(NC(=O)c3ccc(C(C)(C)C)cc3)[nH]n2)ccn1` [3i-1246] as the compound, how does the cell viability read?
The cell viability was 1.076 ± 0.0022.

How did the cell viability turn out when `CC(C)(C)c1ccc(C(=O)Nc2cc(-c3ccccc3)n[nH]2)cc1` [3i-1247] was run?
The cell viability was 1.26 ± 0.087.

For `Cn1cc(-c2cc(NC(=O)c3ccc(C(C)(C)C)cc3)n[nH]2)ccc1=O` [3i-1248], which cell viability is on record?
Its cell viability is 1.15 ± 0.053.

Same assay, conditions: 0.003 µM; 72 h

How did the cell viability turn out when `Cc1cc(-c2cc(NC(=O)c3ccc(C(C)(C)C)cc3)[nH]n2)ccn1` [3i-1246] was run?
Its cell viability is 1.13 ± 0.067.

For `CC(C)(C)c1ccc(C(=O)Nc2cc(-c3ccccc3)n[nH]2)cc1` [3i-1247], which cell viability is on record?
The cell viability was 1.338 ± 0.0028.

How did the cell viability turn out when `Cn1cc(-c2cc(NC(=O)c3ccc(C(C)(C)C)cc3)n[nH]2)ccc1=O` [3i-1248] was run?
The cell viability was 1.25 ± 0.078.

Same assay, conditions: 0.00948683 µM; 72 h

For `Cc1cc(-c2cc(NC(=O)c3ccc(C(C)(C)C)cc3)[nH]n2)ccn1` [3i-1246], which cell viability is on record?
Its cell viability is 1.17 ± 0.087.

With `CC(C)(C)c1ccc(C(=O)Nc2cc(-c3ccccc3)n[nH]2)cc1` [3i-1247] as the compound, how does the cell viability read?
The cell viability was 1.48 ± 0.063.

`Cn1cc(-c2cc(NC(=O)c3ccc(C(C)(C)C)cc3)n[nH]2)ccc1=O` [3i-1248] was tested. Which cell viability did it give?
The cell viability was 1.36 ± 0.027.

Same assay, conditions: 0.03 µM; 72 h

For `Cc1cc(-c2cc(NC(=O)c3ccc(C(C)(C)C)cc3)[nH]n2)ccn1` [3i-1246], which cell viability is on record?
Its cell viability is 1.22 ± 0.064.

With `CC(C)(C)c1ccc(C(=O)Nc2cc(-c3ccccc3)n[nH]2)cc1` [3i-1247] as the compound, how does the cell viability read?
The cell viability was 1.411 ± 0.0049.

For `Cn1cc(-c2cc(NC(=O)c3ccc(C(C)(C)C)cc3)n[nH]2)ccc1=O` [3i-1248], which cell viability is on record?
The cell viability was 1.503 ± 0.0079.

Same assay, conditions: 0.0948683 µM; 72 h

How did the cell viability turn out when `CC(C)(C)c1ccc(C(=O)Nc2cc(-c3ccccc3)n[nH]2)cc1` [3i-1247] was run?
Its cell viability is 1.38 ± 0.063.

With `Cn1cc(-c2cc(NC(=O)c3ccc(C(C)(C)C)cc3)n[nH]2)ccc1=O` [3i-1248] as the compound, how does the cell viability read?
Its cell viability is 1.43 ± 0.11.

Same assay, conditions: 0.3 µM; 72 h

`Cc1cc(-c2cc(NC(=O)c3ccc(C(C)(C)C)cc3)[nH]n2)ccn1` [3i-1246] was tested. Which cell viability did it give?
The cell viability was 1.1 ± 0.073.

`CC(C)(C)c1ccc(C(=O)Nc2cc(-c3ccccc3)n[nH]2)cc1` [3i-1247] was tested. Which cell viability did it give?
Its cell viability is 1.37 ± 0.064.

Which cell viability does the source give for `Cn1cc(-c2cc(NC(=O)c3ccc(C(C)(C)C)cc3)n[nH]2)ccc1=O` [3i-1248] here?
The cell viability was 1.41 ± 0.072.

Same assay, conditions: 0.948683 µM; 72 h

`Cc1cc(-c2cc(NC(=O)c3ccc(C(C)(C)C)cc3)[nH]n2)ccn1` [3i-1246] was tested. Which cell viability did it give?
Its cell viability is 0.962 ± 0.2.

How did the cell viability turn out when `CC(C)(C)c1ccc(C(=O)Nc2cc(-c3ccccc3)n[nH]2)cc1` [3i-1247] was run?
Its cell viability is 1.2 ± 0.041.

With `Cn1cc(-c2cc(NC(=O)c3ccc(C(C)(C)C)cc3)n[nH]2)ccc1=O` [3i-1248] as the compound, how does the cell viability read?
Its cell viability is 1.37 ± 0.046.

Same assay, conditions: 3 µM; 72 h

How did the cell viability turn out when `Cc1cc(-c2cc(NC(=O)c3ccc(C(C)(C)C)cc3)[nH]n2)ccn1` [3i-1246] was run?
Its cell viability is 0.566 ± 0.018.
